From US20240000927A1, “IMMUNOMODULATORY AGENT” (THE QUEEN'S UNIVERSITY OF BELFAST, priority 2020, published 2024)

Assays:
[1] = target: T1, Toll-like receptor (TLR) 4 (Mus musculus, UniProt Q9QUK6); conditions: reported, Ii et al. 2006; cited from earlier work
T1 sequence (Q9QUK6 26-835): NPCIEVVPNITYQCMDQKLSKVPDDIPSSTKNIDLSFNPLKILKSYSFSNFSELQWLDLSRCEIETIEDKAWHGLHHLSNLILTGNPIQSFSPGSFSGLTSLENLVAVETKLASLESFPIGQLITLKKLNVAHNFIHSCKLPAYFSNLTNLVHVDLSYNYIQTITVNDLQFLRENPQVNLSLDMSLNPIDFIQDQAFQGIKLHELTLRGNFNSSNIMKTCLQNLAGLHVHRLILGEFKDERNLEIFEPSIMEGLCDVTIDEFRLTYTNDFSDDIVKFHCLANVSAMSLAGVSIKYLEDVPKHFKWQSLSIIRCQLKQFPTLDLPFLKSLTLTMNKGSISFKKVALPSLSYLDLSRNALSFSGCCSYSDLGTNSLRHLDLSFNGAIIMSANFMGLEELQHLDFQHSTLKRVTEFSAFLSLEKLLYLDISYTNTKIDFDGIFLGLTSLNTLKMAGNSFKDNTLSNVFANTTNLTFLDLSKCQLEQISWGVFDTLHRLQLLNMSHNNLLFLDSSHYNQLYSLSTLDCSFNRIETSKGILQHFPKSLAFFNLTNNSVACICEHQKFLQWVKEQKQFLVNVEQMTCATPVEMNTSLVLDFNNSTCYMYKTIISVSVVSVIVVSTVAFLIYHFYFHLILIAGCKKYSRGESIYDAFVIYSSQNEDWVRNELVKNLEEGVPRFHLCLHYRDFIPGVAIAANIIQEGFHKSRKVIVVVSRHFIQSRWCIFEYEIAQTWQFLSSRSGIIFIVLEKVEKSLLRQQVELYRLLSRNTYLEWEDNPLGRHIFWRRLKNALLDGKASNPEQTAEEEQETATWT

[2] = tested on: RAW 264.7 macrophages; experiment: Nitrite concentration (Griess reaction) in macrophage culture medium; type: cell-based, murine; conditions: LPS 1 ng/ml, stated to be the same as extracts at 1 mg/ml
Description: Induction of iNOS results in the endogenous production of nitric oxide (NO) by conversion of L-arginine to citrulline (Murad 1998). NO is a key facilitator of inflammatory responses, and is only produced by macrophages activated through the classical pathway (ligation of TLRs) (Mosser 2003). Due to the highly reactive nature of NO, its formation is commonly indirectly measured (i.e. by measuring nitrite (NO2-), one of two primary stable non-volatile breakdown products of NO).
Nitrite (NO2—) concentration in culture medium was measured using the Griess reaction method, in accordance with the protocol provided by the manufacturer (Life Technologies, Paisley). […] The concentration of NO2- was measured colourimetrically at λ550 nm using a Tecan Safire2 microplate reader.
A standard solution of 0.1M sodium nitrite (NaNO2) was used to make serial dilutions in the range of 100-1 μM to quantitate NO2- concentrations by means of a standard curve.
To determine the amount of produced NO2— produced, 50 μl of medium from each well of the 96-well microtitre plate was aspirated post incubation and transferred to a fresh 96-well microtiter plate to which a solution of 50 μl sulfanilic acid 1% (10 mg/ml) in 5% phosphoric acid was added and incubated for 10 minutes at room temperature. […] The concentration of NO2— was measured colourimetrically (λ550 nm) using a Tecan Safire2 microplate reader. […]

[3] = target: T1, Toll-like receptor (TLR) 4; experiment: TLR 4 inhibition assay with TAK-242 (nitrite production by macrophages); type: cell-based, murine; design: endogenous in cells; host or cells: RAW 264.7 murine macrophages; conditions: TAK-242 10 nM, 18 h, RAW 264.7
Description: TAK-242 is a small molecule which is a specific inhibitor of Toll-like receptor (TLR) 4, which inhibits the production of pro-inflammatory mediators by binding to Cys747 in the intracellular domain of TLR4. This prevents interactions between TLR4 and its adaptor molecules Toll/IL-1 receptor domain containing adaptor protein (TIRAP) and Toll/IL-1 receptor domain-containing adaptor protein inducing interferon-β-related adaptor molecule (TRAM). Consequently, LPS-induced signal transduction is inhibited, including downstream signalling transduction that results in the production of pro-inflammatory cytokines (Matsunaga et al. 2011). […] RAW 264.7 were prepared as described in Example 3 and subsequently seeded at a density of 1×10^5 cells/well in two 96-well microtitre plates. S. cordifolia fractions (100 l) SCAF 0 and SCAF 5 (1-0.001 mg/ml) were added in triplicate to one of the plates. The positive control was 1 ng/ml LPS and the negative control was 100 μl DMEM medium. The remaining plate was arranged in an identical manner. However, the fractions SCAF 0 and SCAF 5 and positive (LPS 1 ng/ml) and negative (medium) all contained TAK-242 at a concentration 10 nM. Plates were incubated for 18 h in an incubator at 5% CO2 at 37° C. After incubation, nitrite concentrations were determined using the Griess reagent.

Compound	IC50 [1] [nM]	levels of NO2− [2] [µmol/mL]	activation of macrophages (nitrite production) in the presence of TAK-242 [3]
CCOC(=O)C1=CCCC[C@H]1S(=O)(=O)Nc1ccc(F)cc1Cl [TAK-242]	1.1 to 11		
Lipopolysaccharide [LPS]		60 to 80	inactivated
